In patent US10246442B2, “4-Aminoquinazolin compounds as prolyl hydroxylase inhibitors” (JANSSEN PHARMACEUTICA NV, priority 2011, dated 2019):

Columns and labels:
PHD2181-417 = PHD2181-417 (Homo sapiens (Human), UniProt Q9GZT9); assay: PHD enzymatic assay ([14C]-succinic acid production); assay type: biochemical; conditions: purified PHD2181-417, HIF-1α peptide substrate, 30 min pre-incubation; average of results
Method in brief: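 Recombinant human PHD2 (aa 181-417, E. coli-expressed, tags cleaved) with peptide substrate (10 μM) and [5-14C]-2-oxoglutarate in Tris pH 7.5 with catalase, DTT and ascorbate, 10 min reaction after 30 min compound pre-incubation; compounds at 100 μM final, 1% DMSO. [14C]-succinate separated by DNP precipitation and beta-counted; IC50 from three-parameter logistic fit.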

HIF1-α, Hela cells = assay: Cellular assay for HIF1-α in Hela cells; assay type: cell-based; conditions: Homo sapiens, 100 μM compound, 6 hours, percent of HIF stimulation relative to assay control compound 7-[(4-Chloro-phenyl)-(5-methyl-isoxazol-3-ylamino)-methyl]-quinolin-8-ol
Experimental: Cellular Assay for HIF1-α
Hela cells (ATCC, Manassas, Va.) were plated in 96-well plates at 20,000 cells per well in 100 μl of DMEM containing 10% fetal bovine serum, 1% non-essential amino acids, 50 IU/mL of penicillin and 50 μg/mL of streptomycin (all cell culture reagents from Invitrogen, Carlsbad, Calif.). 24 hours after plating, changed media to 100 ul of DMEM without 10% fetal bovine serum, 1.1 μl of the stock solution for each compound was added and incubated for 6 hours. All compounds were tested with a final compound concentration of 100 μM. The supernatant was removed and the cells were lysed in 55 μl of MSD lysis buffer containing protease inhibitors. 50 μl of the cell lysate was then transferred to a blocked MSD human HIF-1α detection plate (Meso-Scale Discovery, Gaithersburg, Md., as per manufacturers protocol), and incubated at room temperature on an orbital shaker for 2 hour. After 3 washes in PBS, 25 μl of 20 nM anti-HIF1α a detection antibody was added and incubated for 1 hour at room temperature on an orbital shaker. After 3 washes in PBS, 150 μl of 1× read buffer was added and the plate was then read on a MSD SECTOR instrument. Data was analyzed by determining the percent of HIF stimulation in the presence of 100 μM compound relative to an assay control compound, 7-[(4-Chloro-phenyl)-(5-methyl-isoxazol-3-ylamino)-methyl]-quinolin-8-ol.

[1] = test system: Erythropoietin secretion, Hep-3B cells; assay: Cellular assay: EPO secretion in Hep-3B cells; assay type: cell-based; conditions: Homo sapiens, Hep3B, 100 μM compound, 24 hours, percent of EPO secretion relative to assay control compound 7-[(4-Chloro-phenyl)-(5-methyl-isoxazol-3-ylamino)-methyl]-quinolin-8-ol, read-out: Cellular % EPO Stimulation
Method in brief: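 Compounds at 100 μM final were added to Hep-3B cells 24 h after plating and left for 24 h. Secreted EPO in supernatant measured by MSD electrochemiluminescence immunoassay. Reported as percent EPO secretion relative to an 8-hydroxyquinoline reference control compound.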

Chain of PHD2181-417 (Q9GZT9 181-417): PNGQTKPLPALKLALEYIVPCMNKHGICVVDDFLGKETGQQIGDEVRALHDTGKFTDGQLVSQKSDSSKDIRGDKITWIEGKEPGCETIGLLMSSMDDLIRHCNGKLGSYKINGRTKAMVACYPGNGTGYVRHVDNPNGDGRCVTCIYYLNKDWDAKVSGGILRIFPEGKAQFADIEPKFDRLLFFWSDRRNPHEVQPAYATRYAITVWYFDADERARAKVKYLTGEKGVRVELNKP

Enzyme pIC50 (PHD2181-417)	Compound	activation at 100 µM (HIF1-α, Hela cells) [%]	activation at 100 µM [1] [%]
5.5	O=C(O)c1cnn(-c2nc(N3CCCC3)c3ccc(-c4ccccc4)cc3n2)c1 [Example 81, 1-(7-Phenyl-4-(pyrrolidin-1-yl)quinazolin-2-yl)-1H-pyrazole-4-carboxylic acid]	10	–
6.9	N#CC1CCN(c2nc(-n3cc(C(=O)O)cn3)nc3ccc(C4CCCCC4)cc23)CC1 [Example 30, 1-(4-(4-Cyanopiperidin-1-yl)-6-cyclohexylquinazolin-2-yl)-1H-pyrazole-4-carboxylic acid]	77	–
6.0	CN(C)c1nc(-n2cc(C(=O)O)cn2)nc2cc(-c3ccccc3)ccc12 [Example 80, 1-(4-(Dimethylamino)-7-phenylquinazolin-2-yl)-1H-pyrazole-4-carboxylic acid]	7.8	–
6.2	O=C(O)c1cnn(-c2nc(NC3CCOCC3)c3cc(-c4ccccc4)ccc3n2)c1 [Example 56, 1-(6-Phenyl-4-((tetrahydro-2H-pyran-4-yl)amino)quinazolin-2-yl)-1H-pyrazole-4-carboxylic acid]	25	–
6.6	O=C(O)c1cnn(-c2nc(Nc3ccccc3Cl)c3cc(-c4ccccc4)ccc3n2)c1 [Example 47, 1-(4-((2-Chlorophenyl)amino)-6-phenylquinazolin-2-yl)-1H-pyrazole-4-carboxylic acid]	10	–
7.5	O=C(O)c1cnn(-c2nc(NCC3CCCCC3)c3cc(Oc4ccc(Cl)cc4)ccc3n2)c1 [Example 64, 1-(6-(4-Chlorophenoxy)-4-((cyclohexylmethyl)amino)quinazolin-2-yl)-1H-pyrazole-4-carboxylic acid]	1.5	–
6.2	O=C(O)c1cnn(-c2nc(N3CCOCC3)c3ccc(Oc4ccccc4)cc3n2)c1 [Example 89, 1-(4-Morpholino-7-phenoxyquinazolin-2-yl)-1H-pyrazole-4-carboxylic acid]	17	–
6.5	CC(C)(C)Nc1nc(-n2cc(C(=O)O)cn2)nc2ccc(-c3ccccc3)cc12 [Example 52, 1-(4-(tert-Butylamino)-6-phenylquinazolin-2-yl)-1H-pyrazole-4-carboxylic acid]	37	–
6.5	O=C(O)c1cnn(-c2nc(NC3CC3)c3cc(-c4ccccc4)ccc3n2)c1 [Example 51, 1-(4-(Cyclopropylamino)-6-phenylquinazolin-2-yl)-1H-pyrazole-4-carboxylic acid]	40	–
–	CCCN(CCC)c1nc(-n2cc(C(=O)O)cn2)nc2cc(Oc3ccccc3)ccc12 [Example 93, 1-(4-(Dipropylamino)-7-phenoxyquinazolin-2-yl)-1H-pyrazole-4-carboxylic acid]	43	–
–	O=C(O)c1cnn(-c2nc(N3CCCCCC3)c3ccc(Oc4ccccc4)cc3n2)c1 [Example 87, 1-(4-(Azepan-1-yl)-7-phenoxyquinazolin-2-yl)-1H-pyrazole-4-carboxylic acid]	20	–
7.1	Cc1cccc(C)c1Oc1cc2c(NC3CCOCC3)nc(-n3cc(C(=O)O)cn3)nc2cc1F [Example 16, 1-(6-(2,6-Dimethylphenoxy)-7-fluoro-4-((tetrahydro-2H-pyran-4-yl)amino)quinazolin-2-yl)-1H-pyrazole-4-carboxylic acid]	–	71
6.8	O=C(O)c1cnn(-c2nc(NC3CC3)c3cc(OC4CCCCC4)ccc3n2)c1 [Example 176, 1-(6-(cyclohexyloxy)-4-(cyclopropylamino)quinazolin-2-yl)-1H-pyrazole-4-carboxylic acid]	–	35
7.1	CN(C)c1nc(-n2cc(C(=O)O)cn2)nc2cc(F)c(OC3CCCCC3)cc12 [Example 101, 1-(7-fluoro-6-(cyclohexyloxy)-4-(dimethylamino)quinazolin-2-yl)-1H-pyrazole-4-carboxylic acid]	–	85
6.0	CC(C)c1ccc2nc(-n3cc(C(=O)O)cn3)nc(NC3CC3)c2c1 [Example 188, 1-(4-(cyclopropylamino)-6-isopropylquinazolin-2-yl)-1H-pyrazole-4-carboxylic acid]	–	35
7.6	O=C(O)c1cnn(-c2nc(N3CCCCC3)c3cc(Oc4ccc(Cl)cc4)ccc3n2)c1 [Example 63, 1-(6-(4-Chlorophenoxy)-4-(piperidin-1-yl)quinazolin-2-yl)-1H-pyrazole-4-carboxylic acid]	–	39
7.4	CCCN(CCC)c1nc(-n2cc(C(=O)O)cn2)nc2cc(F)c(Oc3c(C)cccc3C)cc12 [Example 12, 1-[6-(2,6-Dimethyl-phenoxy)-4-dipropylamino-7-fluoro-quinazolin-2-yl]-1H-pyrazole-4-carboxylic acid]	–	9
6.7	O=C(O)c1cnn(-c2nc(N3CCOCC3)c3cc(OC4CCCCC4)c(Cl)cc3n2)c1 [Example 136, 1-(7-chloro-6-(cyclohexyloxy)-4-morpholinoquinazolin-2-yl)-1H-pyrazole-4-carboxylic acid]	–	33
7.3	CC(C)c1cc2c(N3CCCC3)nc(-n3cc(C(=O)O)cn3)nc2cc1Cl [Example 163, 1-(7-chloro-4-(pyrrolidin-1-yl)-6-isopropylquinazolin-2-yl)-1H-pyrazole-4-carboxylic acid]	–	26
6.9	Cc1cccc(C)c1Oc1cc2c(N3CCCCC3)nc(-n3cc(C(=O)O)cn3)nc2cc1F [Example 4, 1-[6-(2,6-Dimethyl-phenoxy)-7-fluoro-4-piperidin-1-yl-quinazolin-2-yl]-1H-pyrazole-4-carboxylic acid]	–	17
7.4	Cc1cccc(C)c1Oc1cc2c(Nc3ccccc3)nc(-n3cc(C(=O)O)cn3)nc2cc1F [Example 6, 1-[6-(2,6-Dimethyl-phenoxy)-7-fluoro-4-phenylamino-quinazolin-2-yl]-1H-pyrazole-4-carboxylic acid]	–	22
7.4	N#CC1CCN(c2nc(-n3cc(C(=O)O)cn3)nc3ccc(Oc4ccc(Cl)cc4)cc23)CC1 [Example 65, 1-(6-(4-Chlorophenoxy)-4-(4-cyanopiperidin-1-yl)quinazolin-2-yl)-1H-pyrazole-4-carboxylic acid]	–	77
7.4	CCN(C)c1nc(-n2cc(C(=O)O)cn2)nc2cc(Cl)c(C(C)C)cc12 [Example 164, 1-(7-chloro-4-(ethyl(methyl)amino)-6-isopropylquinazolin-2-yl)-1H-pyrazole-4-carboxylic acid]	–	57
7.7	CCN(CC)c1nc(-n2cc(C(=O)O)cn2)nc2cc(Oc3ccccc3)ccc12 [Example 83, 1-(4-(Diethylamino)-7-phenoxyquinazolin-2-yl)-1H-pyrazole-4-carboxylic acid]	–	25
7.3	CCN(C)c1nc(-n2cc(C(=O)O)cn2)nc2ccc(-c3ccccc3)cc12 [Example 42, 1-(4-(Ethyl(methyl)amino)-6-phenylquinazolin-2-yl)-1H-pyrazole-4-carboxylic acid]	–	56
7.3	CCN(C)c1nc(-n2cc(C(=O)O)cn2)nc2ccc(OC3CCCCC3)cc12 [Example 177, 1-(6-(cyclohexyloxy)-4-(ethyl(methyl)amino)quinazolin-2-yl)-1H-pyrazole-4-carboxylic acid]	–	56
7.7	O=C(O)c1cnn(-c2nc(Nc3ccccc3)c3cc(Oc4ccc(Cl)cc4)ccc3n2)c1 [Example 69, 1-(6-(4-Chlorophenoxy)-4-(phenylamino)quinazolin-2-yl)-1H-pyrazole-4-carboxylic acid]	–	23
7.1	CCCCN(CCCC)c1nc(-n2cc(C(=O)O)cn2)nc2cc(F)c(Oc3c(C)cccc3C)cc12 [Example 11, 1-[6-(2,6-Dimethyl-phenoxy)-4-dibutylamino-7-fluoro-quinazolin-2-yl]-1H-pyrazole-4-carboxylic acid]	–	9
